# Measurements: patent US6541208B1, “Diagnostic method for distinguishing HIV-associated dementia from other forms of dementia” (University of Maryland Biotechnology Institute, priority 1998, dated 2003)
# How the values were obtained:
# [1] = tested on: astrocytic MCP-1 expression; experiment: Northern blot analysis of MCP-1 RNA in stimulated human astrocytes; format: cell-based
# From the text: FIG. 1A—Total RNA was extracted from T lymphoblastoid HUT 78 cells (ATCC), and from variously treated human astrocytes. Ten μg per lane were then run on a 1% agarose-6% formaldehyde gel. Following transfer of RNA to nitrocellulose, the blot was probed with the full-length cDNA for MCP-1, and subsequently, RANTES. RNA from untreated astrocytes was run in lanes 2 and 4. […] Astrocytic expression of RANTES was not detected.
# FIG. 1B—Similar experience except that RNA from HUT 78 cells (lane 1) was compared to RNA from astrocytes that were unstimulated (lane 2) or stimulated for 2 hr with 100 nM Tat (lane 3), 25 μM TPCK followed by 100 nM Tat (lane 4) or 25 μM TPCK (lane 5).
# Brain tissue from 12-14 wk human fetuses was obtained in accordance with NIH guidelines. The tissue was mechanically disrupted by aspiration through a 19-gauge needle, washed in Eagle's minimal essential medium (EMEM) and then distributed into tissue culture flasks. Cells were maintained in EMEM containing 10% fetal bovine serum, 2 mM L-glutamine and 5 μg/ml gentamicin. Several days later, flasks were placed into an orbital incubator shaker at 37° C. and 210 rpm for 6 hr. Non-adherent cells were removed. A portion of the adherent cells were later stained with an antibody to glial fibrallary acidic protein and only those cultures which were >95% positive were used. […]
# [2] = tested on: MCP-1 activity; conditions: point mutations Thr-10 to Arg and Tyr-13 to Ile; cited from earlier work
compound,measurement,setting,value
"Cc1ccc(S(=O)(=O)N[C@@H](Cc2ccccc2)C(=O)CCl)cc1 [TPCK, n-tosli-L-phenylalanine chloromethyl ketone, reference compound]",effect on Tat-induced increase in MCP-1 encoding RNA,"[1]; 25 μM TPCK followed by 100 nM Tat, 2 hr",inhibited
"MCP-1 protein with point mutations of Thr-10 to Arg and Tyr-13 to Ile: mutant MCP-1 protein from Beal et al., contemplated as MCP-1 antagonist",MCP-1 activity of the mutant protein,[2],greatly reduced MCP-1 activity
interleukin-1β: cytokine used at 5 ng/ml to stimulate astrocytes [reference compound],astrocytic MCP-1 expression (MCP-1 encoding RNA),"[1]; 5 ng/ml interleukin-1β, 4 hr stimulation, human astrocytes",increase in astrocytic MCP-1 expression
